Numbered stars: 1 amine (or outer) side, 2 acyl side, 3 side chain; on linkers, the order of the positions; unused ones are H or OH. Bridge positions count the residues as written; N and C are the ends. Square brackets hold non-standard residues; d marks the D form. Peptide text beside a SMILES is read from it. X6 = O=C(O)CC[C@H](CC(=O)[C@H](Cc1cnc[nH]1)N[*:1])C(=O)[*:2]; X8 = C[C@@H](C(=O)[*:2])N(CCC(F)(F)F)[*:1]; X5 = CCCC[C@@H](C(=O)[*:2])N(CC)[*:1]; X1 = O=C(CN(CCC(F)(F)F)[*:1])[*:2]; Gly(N-2-aminoethyl) = NCCNCC(=O)O; Hyp = O=C(O)[C@@H]1C[C@@H](O)CN1; NMeNle = CCCC[C@H](NC)C(=O)O; NEtAla = CCN[C@@H](C)C(=O)O; NMeA = CN[C@@H](C)C(=O)O; Nphe = O=C(O)CNCc1ccccc1; Dab = NCC[C@H](N)C(=O)O; Nme = COCCNCC(=O)O; NEtG = CCNCC(=O)O
Target: T1, PD-1-Ig binding to PD-L1-TVMV-His (PD-L1-His) (Homo sapiens, UniProt Q9NZQ7)
T1 construct: hPDL1(19-239)-TVMV-His; made in house; host or cells: HEK293T
Assay: PD-1/PD-L1 Homogenous Time-Resolved Fluorescence (HTRF) binding assay
Conditions: PD-L1-His 10 nM, PD-1-Ig 20 nM
Text: Methods for Testing the Ability of Macrocyclic Peptides to Compete for the Binding of Pd-1 to Pd-L1 Using Homogenous Time-Resolved Fluorescence (HTRF) Binding Assays
The ability of the macrocyclic peptides of the present disclosure to bind to PD-L1 was investigated using a PD-1/PD-L1 Homogenous Time-Resolved Fluorescence (HTRF) binding assay.
Homogenous Time-Resolved Fluorescence (HTRF) Assays of Binding of Soluble PD-1 to Soluble PD-L1. Soluble PD-1 and soluble PD-L1 refers to proteins with carboxyl-end truncations that remove the transmembrane-spanning regions and are fused to heterologous sequences, specifically the Fc portion of the human immunoglobuling G sequence (Ig) or the hexahistidine epitope tag (His). All binding studies were performed in an HTRF assay buffer consisting of dPBS supplemented with 0.1% (w/v) bovine serum albumin and 0.05% (v/v) Tween-20. For the PD-1-Ig/PD-L1-His binding assay, inhibitors were pre-incubated with PD-L1-His (10 nM final) for 15 m in 4 μl of assay buffer, followed by addition of PD-1-Ig (20 nM final) in 1 μl of assay buffer and further incubation for 15 m. PD-L1 fusion proteins from either human, cynomologous macaques, mouse, or other species were used. HTRF detection was achieved using europium crypate-labeled anti-Ig monoclonal antibody (1 nM final) and allophycocyanin (APC) labeled anti-His monoclonal antibody (20 nM final). Antibodies were diluted in HTRF detection buffer and 5 μl was dispensed on top of binding reaction. The reaction was allowed to equilibrate for 30 minutes and signal (665 nm/620 nm ratio) was obtained using an EnVision fluorometer. Additional binding assays were established between PD-1-Ig/PD-L2-His (20 and 5 nM, respectively), CD80-His/PD-L1-Ig (100 and 10 nM, respectively) and CD80-His/CTLA4-Ig (10 and 5 nM, respectively). Binding/competition studies between biotinylated Compound No. 71 and human PD-L1-His were performed as follows. Macrocyclic peptide inhibitors were pre-incubated with PD-L1-His (10 nM final) for 60 minutes in 4 μl of assay buffer followed by addition of biotinylated Compound No. 71 (0.5 nM final) in 1 μl of assay buffer. Binding was allowed to equilibrate for 30 minutes followed by addition of europium crypated labeled Streptavidin (2.5 pM final) and APC-labeled anti-His (20 nM final) in 5 μl of HTRF buffer. The reaction was allowed to equilibrate for 30 m and signal (665 nm/620 nm ratio) was obtained using an EnVision fluorometer.
Recombinant Proteins. Carboxyl-truncated human PD-1 (amino acids 25-167) with a C-terminal human Ig epitope tag [hPD-1 (25-167)-3S-IG] and human PD-L1 (amino acids 18-239) with a C-terminal His epitope tag [hPD-L1(19-239)-tobacco vein mottling virus protease cleavage site (TVMV)-His] were expressed in HEK293T cells and purified sequentially by recombinant Protein A affinity chromatography and size exclusion chromatography. Human PD-L2-His (Sino Biologicals), CD80-His (Sino Biologicals), CTLA4-Ig (RnD Systems) were all obtained through commercial sources.
Ranges are as follows: A=0.10-10 μM; B=0.01-0.099 μM; C=0.005-0.0099 μM.

T1 sequence (Q9NZQ7 with tags, fused parts or gaps): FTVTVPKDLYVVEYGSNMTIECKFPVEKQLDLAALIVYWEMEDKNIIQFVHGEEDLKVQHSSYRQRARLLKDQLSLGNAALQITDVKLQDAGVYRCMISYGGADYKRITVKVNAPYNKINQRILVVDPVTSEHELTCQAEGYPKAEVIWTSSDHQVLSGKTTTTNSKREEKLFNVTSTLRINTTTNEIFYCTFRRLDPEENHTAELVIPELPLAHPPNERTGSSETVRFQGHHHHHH

Row | SMILES | IC50 (range class) | IC50 (numeric value)
1 | CCCC[C@H]1C(=O)N(C)[C@@H](CCCC)C(=O)N[C@@H](CC(C)C)C(=O)N[C@H](C(=O)NCC(N)=O)CSCC(=O)N[C@@H](Cc2ccc(O)cc2)C(=O)N(C)[C@@H](C)C(=O)N[C@@H](CC(N)=O)C(=O)N(CC(=O)O)CC(=O)N[C@@H](Cc2c[nH]cn2)C(=O)N[C@@H](CCC(=O)O)C(=O)N2C[C@H](O)C[C@H]2C(=O)N[C@@H](Cc2c[nH]c3ccccc23)C(=O)N[C@@H](CCN)C(=O)N[C@@H](Cc2csc3ccccc23)C(=O)N1C [Example 5002] | 5 to 9.9 nM | 
2 | CCCC[C@H]1C(=O)N[C@@H](CC(C)C)C(=O)N[C@H](C(=O)NCC(N)=O)CSCC(=O)N[C@@H](Cc2ccc(O)cc2)C(=O)N(C)[C@@H](C)C(=O)N[C@@H](CC(N)=O)C(=O)N2CCC[C@H]2C(=O)N[C@@H](Cc2cnc[nH]2)C(=O)N[C@@H](CCC(=O)O)C(=O)N2C[C@H](O)C[C@H]2C(=O)N[C@@H](Cc2c[nH]c3ccccc23)C(=O)N[C@@H](CCN)C(=O)N[C@@H](Cc2c[nH]c3ccccc23)C(=O)N(CCC(F)(F)F)[C@@H](C)C(=O)N1C [Example 3041] ({CH2CO}-Y[NMeA]NPHE[Hyp]W[Dab]W[X8][NMeNle]LCG-NH2; thioether N-14) | 10 to 99 nM | 
3 | CCCC[C@H]1C(=O)N(C)[C@@H](CCCC)C(=O)N[C@@H](CC(C)C)C(=O)N[C@H](C(=O)NCC(N)=O)CSCC(=O)N[C@@H](Cc2ccc(O)cc2)C(=O)N(CC)[C@@H](C)C(=O)N[C@@H](CC(N)=O)C(=O)N2CCC[C@H]2C(=O)N[C@@H](Cc2cnc[nH]2)C(=O)C[C@@H](CCC(=O)O)C(=O)N2C[C@H](O)C[C@H]2C(=O)N[C@@H](Cc2c[nH]c3ccccc23)C(=O)N[C@@H](CCN)C(=O)N[C@@H](Cc2c[nH]c3ccccc23)C(=O)N1C [Example 3017] ({CH2CO}-Y[NEtAla]NP[X6][Hyp]W[Dab]W[NMeNle][NMeNle]LCG-NH2; thioether N-13) | 5 to 9.9 nM | 
4 | CCCC[C@H]1C(=O)N(C)[C@@H](CCCC)C(=O)N[C@@H](CC(C)C)C(=O)N[C@H](C(=O)NCC(N)=O)CSCC(=O)N[C@@H](Cc2ccc(O)cc2)C(=O)N(C)[C@@H](C)C(=O)N[C@@H](CC(N)=O)C(=O)N2CCC[C@H]2C(=O)N[C@@H](Cc2cnc[nH]2)C(=O)N[C@@H](CCC(=O)O)C(=O)N(CC(=O)O)CC(=O)N[C@@H](Cc2c[nH]c3ccccc23)C(=O)N[C@@H](CCN)C(=O)N[C@@H](Cc2c[nH]c3ccccc23)C(=O)N1C [Example 3005] |  | 30 nM
5 | CCCC[C@H]1C(=O)N(C)[C@@H](CCCC)C(=O)N[C@@H](CC(C)C)C(=O)N[C@H](C(=O)NCC(N)=O)CSCC(=O)N[C@@H](Cc2ccc(O)cc2)C(=O)N(C)[C@@H](C)C(=O)N[C@@H](CC(N)=O)C(=O)N2CCC[C@H]2C(=O)N[C@@H](Cc2cnc[nH]2)C(=O)N[C@@H](CCC(=O)O)C(=O)N(CCOC)CC(=O)N[C@@H](Cc2c[nH]c3ccccc23)C(=O)N[C@@H](CCN)C(=O)N[C@@H](Cc2c[nH]c3ccccc23)C(=O)N1C [Example 3006] ({CH2CO}-Y[NMeA]NPHE[Nme]W[Dab]W[NMeNle][NMeNle]LCG-NH2; thioether N-14) | 10 to 99 nM | 
6 | CCCC[C@H]1C(=O)N(C)[C@@H](CCCC)C(=O)N[C@@H](CC(C)C)C(=O)N[C@H](C(=O)NCC(N)=O)CSCC(=O)N[C@@H](Cc2ccc(O)cc2)C(=O)N(CCC(F)(F)F)CC(=O)N[C@@H](CC(N)=O)C(=O)N2CCC[C@H]2C(=O)N[C@@H](Cc2cnc[nH]2)C(=O)N[C@@H](CCC(=O)O)C(=O)N2C[C@H](O)C[C@H]2C(=O)N[C@@H](Cc2c[nH]c3ccccc23)C(=O)N[C@@H](CCN)C(=O)N[C@@H](Cc2c[nH]c3ccccc23)C(=O)N1C [Example 3046] ({CH2CO}-Y[X1]NPHE[Hyp]W[Dab]W[NMeNle][NMeNle]LCG-NH2; thioether N-14) | 10 to 99 nM | 
7 | CCCC[C@H]1C(=O)N(C)[C@@H](CCCC)C(=O)N[C@@H](CC(C)C)C(=O)N[C@H](C(=O)NCC(N)=O)CSCC(=O)N[C@@H](Cc2ccc(O)cc2)C(=O)N(C)[C@@H](C)C(=O)N[C@@H](CC(N)=O)C(=O)N2CCC[C@H]2C(=O)N[C@@H](Cc2c[nH]cn2)C(=O)N[C@@H](CCC(=O)O)C(=O)N(CC(=O)O)CC(=O)N[C@@H](Cc2c[nH]c3ccccc23)C(=O)N[C@@H](CCN)C(=O)N[C@@H](Cc2csc3ccccc23)C(=O)N1C [Example 5001] | 5 to 9.9 nM | 
8 | CCCC[C@H]1C(=O)N(C)[C@@H](CCCC)C(=O)N[C@@H](CC(C)C)C(=O)N[C@H](C(=O)NCC(N)=O)CSCC(=O)N[C@@H](Cc2ccc(O)cc2)C(=O)N(C)[C@@H](C)C(=O)N[C@@H](CC(N)=O)C(=O)N2CCC[C@H]2C(=O)N[C@@H](Cc2cnc[nH]2)C(=O)N[C@@H](CCC(=O)O)C(=O)N(Cc2ccccc2)CC(=O)N[C@@H](Cc2c[nH]c3ccccc23)C(=O)N[C@@H](CCN)C(=O)N[C@@H](Cc2c[nH]c3ccccc23)C(=O)N1C [Example 3004] ({CH2CO}-Y[NMeA]NPHE[Nphe]W[Dab]W[NMeNle][NMeNle]LCG-NH2; thioether N-14) | 10 to 99 nM | 
9 | CCCC[C@H]1C(=O)N(C)[C@@H](CCCC)C(=O)N[C@@H](CC(C)C)C(=O)N[C@H](C(=O)NCC(N)=O)CSCC(=O)N[C@@H](Cc2ccc(O)cc2)C(=O)N(CC(=O)O)CC(=O)N[C@@H](CC(N)=O)C(=O)N2CCC[C@H]2C(=O)N[C@@H](Cc2cnc[nH]2)C(=O)N[C@@H](CCC(=O)O)C(=O)N2C[C@H](O)C[C@H]2C(=O)N[C@@H](Cc2c[nH]c3ccccc23)C(=O)N[C@@H](CCN)C(=O)N[C@@H](Cc2c[nH]c3ccccc23)C(=O)N1C [Example 3044] | 10 to 99 nM | 
10 | CCCC[C@H]1C(=O)N(C)[C@@H](CCCC)C(=O)N[C@@H](CC(C)C)C(=O)N[C@H](C(=O)NCC(N)=O)CSCC(=O)N[C@@H](Cc2ccc(O)cc2)C(=O)N(C)[C@@H](C)C(=O)N[C@@H](CC(N)=O)C(=O)N2CCC[C@H]2C(=O)N[C@@H](Cc2cnc[nH]2)C(=O)N[C@@H](CCC(=O)O)C(=O)N(CCN)CC(=O)N[C@@H](Cc2c[nH]c3ccccc23)C(=O)N[C@@H](CCN)C(=O)N[C@@H](Cc2c[nH]c3ccccc23)C(=O)N1C [Example 3011] ({CH2CO}-Y[NMeA]NPHE[Gly(N-2-aminoethyl)]W[Dab]W[NMeNle][NMeNle]LCG-NH2; thioether N-14) |  | 6.12 nM
11 | CCCC[C@H]1C(=O)N(CC)[C@@H](CCCC)C(=O)N[C@@H](CC(C)C)C(=O)N[C@H](C(=O)NCC(N)=O)CSCC(=O)N[C@@H](Cc2ccc(O)cc2)C(=O)N(C)[C@@H](C)C(=O)N[C@@H](CC(N)=O)C(=O)N2CCC[C@H]2C(=O)N[C@@H](Cc2cnc[nH]2)C(=O)N[C@@H](CCC(=O)O)C(=O)N2C[C@H](O)C[C@H]2C(=O)N[C@@H](Cc2c[nH]c3ccccc23)C(=O)N[C@@H](CCN)C(=O)N[C@@H](Cc2c[nH]c3ccccc23)C(=O)N1C [Example 3021] ({CH2CO}-Y[NMeA]NPHE[Hyp]W[Dab]W[NMeNle][X5]LCG-NH2; thioether N-14) | 5 to 9.9 nM | 
12 | CCCC[C@H]1C(=O)N(C)[C@@H](CCCC)C(=O)N[C@@H](CC(C)C)C(=O)N[C@H](C(=O)NCC(N)=O)CSCC(=O)N[C@@H](Cc2ccc(O)cc2)C(=O)N(C)[C@@H](C)C(=O)N[C@@H](CC(N)=O)C(=O)N2CCC[C@H]2C(=O)N[C@@H](Cc2cnc[nH]2)C(=O)N[C@@H](CCC(=O)O)C(=O)N(CC)CC(=O)N[C@@H](Cc2c[nH]c3ccccc23)C(=O)N[C@@H](CCN)C(=O)N[C@@H](Cc2c[nH]c3ccccc23)C(=O)N1C [Example 3003] ({CH2CO}-Y[NMeA]NPHE[NEtG]W[Dab]W[NMeNle][NMeNle]LCG-NH2; thioether N-14) | 10 to 99 nM | 
13 | CCCC[C@H]1C(=O)N(C)[C@@H](CCCC)C(=O)N[C@@H](CC(C)C)C(=O)N[C@H](C(=O)NCC(N)=O)CSCC(=O)N[C@@H](Cc2ccc(O)cc2)C(=O)N(C)[C@@H](C)C(=O)N[C@@H](CC(N)=O)C(=O)N(CC(=O)O)CC(=O)N[C@@H](Cc2cnc[nH]2)C(=O)N[C@@H](CCC(=O)O)C(=O)N2C[C@H](O)C[C@H]2C(=O)N[C@@H](Cc2c[nH]c3ccccc23)C(=O)N[C@@H](CCN)C(=O)N[C@@H](Cc2c[nH]c3ccccc23)C(=O)N1C [Example 3015] | 10 to 99 nM | 

— patent US9861680B2, “Immunomodulators” (BRISTOL-MYERS SQUIBB COMPANY, priority 2014, dated 2018)
